The target in experiment [1] is rhTDO (recombinant human TDO) (Homo sapiens, UniProt P48775). Briefly: Enzyme assay using rhTDO (rate of kynurenine production). The class given is biochemical. The following applies: 2 h; final concentration of the compound 10 μM; rate relative to reaction without compound; read-out: rhTDO-mediated kynurenine production. The gist of the method:
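Kynurenine output, as percent of untreated control after background subtraction, read at 490 nm with p-dimethylbenzaldehyde following TCA quench and 15 min heating at 50 °C. Reaction: rhTDO with compound, 10 min preincubation then 120 min at 37 °C, started by 20 mM tryptophan stock, in phosphate/ascorbate/methylene blue/catalase.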

For experiment [2], the target named is rhIDO (recombinant human IDO) (Homo sapiens, UniProt P14902). Briefly: Enzyme assay using rhIDO (rate of kynurenine production). The class given is biochemical. The following applies: 2 h; final concentration of the compound 10 μM; rate relative to reaction without compound; read-out: rhIDO-mediated kynurenine production. The procedure, abridged:
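rhIDO preincubated with compound 10 min at 37 °C in phosphate buffer with ascorbate, methylene blue and catalase; started with 2 mM tryptophan solution (stock) and run 120 min at 37 °C. Stopped with TCA and heated to convert N-formylkynurenine; kynurenine read at 490 nm after p-dimethylbenzaldehyde, background-subtracted, as % of no-compound control.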

A further experiment addresses T1, IDO in A431 cells (Homo sapiens, UniProt P14902).
T1 construct: endogenous in cells; host or cells: A431 cells, IFN-γ stimulated
Briefly: IDO cell-based assay, kynurenine production in IFN-γ stimulated A431 cells. Conditions: A-431, 24 h; final concentration of the compound 10 μM; rate relative to culture without compound. The gist of the method:
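A431 cells were cultured 24 h, then preincubated 1 h with compound in medium containing 178 μM L-tryptophan, and stimulated with IFN-γ (diluted to 100 ng/mL before addition) for 24 h. Kynurenine was measured by p-dimethylbenzaldehyde absorbance at 460 nm, background-subtracted, and expressed as % production versus no-compound control.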

The target in another experiment is T2, TDO in A172 cells (Homo sapiens, UniProt P48775).
T2 construct: endogenous in cells; host or cells: A172 cells
T2 sequence (P48775 whole entry): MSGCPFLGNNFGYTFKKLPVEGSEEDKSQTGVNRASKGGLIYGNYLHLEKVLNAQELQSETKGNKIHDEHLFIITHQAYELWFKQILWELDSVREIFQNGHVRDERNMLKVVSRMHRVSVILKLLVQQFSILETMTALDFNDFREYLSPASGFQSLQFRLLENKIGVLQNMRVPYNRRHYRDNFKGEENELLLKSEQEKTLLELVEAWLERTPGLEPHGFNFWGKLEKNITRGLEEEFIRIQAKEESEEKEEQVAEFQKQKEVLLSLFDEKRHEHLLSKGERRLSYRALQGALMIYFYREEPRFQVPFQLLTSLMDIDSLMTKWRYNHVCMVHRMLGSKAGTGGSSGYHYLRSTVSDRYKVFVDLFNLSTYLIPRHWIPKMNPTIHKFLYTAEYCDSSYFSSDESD
Briefly: TDO cell-based assay, kynurenine production in A172 cells. Conditions: A 172; final concentration of the compound 10 μM; rate relative to culture without compound. The procedure, abridged:
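A172 cells were preincubated with compound for 1 h, then given L-tryptophan (final 524 μM) for 24 h at 37 °C. Kynurenine was read at 460 nm after p-dimethylbenzaldehyde/TCA reagent, background-subtracted, and expressed as % of no-compound production.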

The structures appear in SMILES notation. Where a name gives a salt, the structure may show the parent alone.

T1 sequence (P14902 whole entry): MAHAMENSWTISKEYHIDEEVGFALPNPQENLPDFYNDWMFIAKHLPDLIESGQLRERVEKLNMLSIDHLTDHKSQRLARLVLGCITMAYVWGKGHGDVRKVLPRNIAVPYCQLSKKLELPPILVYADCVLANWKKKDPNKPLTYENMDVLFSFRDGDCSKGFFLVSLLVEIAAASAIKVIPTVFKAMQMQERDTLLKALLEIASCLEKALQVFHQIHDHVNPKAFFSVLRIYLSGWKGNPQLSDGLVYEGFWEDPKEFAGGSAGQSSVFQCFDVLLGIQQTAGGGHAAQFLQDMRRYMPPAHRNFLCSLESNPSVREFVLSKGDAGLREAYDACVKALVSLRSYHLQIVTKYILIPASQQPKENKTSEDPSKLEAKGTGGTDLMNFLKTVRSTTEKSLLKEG
Chain of rhIDO (recombinant human IDO) (P14902 whole entry): as above
Chain of rhTDO (recombinant human TDO) (P48775 whole entry): as the sequence (P48775 whole entry) above

In the case of `N#Cc1ccc(CNC(=O)c2ccc(Br)cc2CS/C(N)=N/c2ccc(Br)cc2)cc1` [Compound 87, 5-Bromo-2-((4-cyanobenzyl)carbamoyl)benzyl (E)-N′-(4-bromophenyl)carbamimidothioate hydrobromide], the remaining activity at 10 µM was found to be 51% in experiment [1], 75% in experiment [2], 67% on IDO in A431 cells and 13% at TDO in A172 cells.

Turning to `N/C(=N\c1ccc(F)c(Cl)c1)SCc1cc(Br)ccc1C(=O)NCc1ccc(F)cc1` [Compound 88, 5-Bromo-2-((4-fluorobenzyl)carbamoyl)benzyl (E)-N′-(3-chloro-4-fluorophenyl)carbamimidothioate hydrobromide], the remaining activity at 10 µM came out at 92% in experiment [1], 82% in experiment [2], 64% on IDO in A431 cells and 28% at TDO in A172 cells.

As for `N=C(N)SCc1cc(Br)ccc1C(=O)NCc1ccc(Cl)cc1Cl` [Compound 89, 5-Bromo-2-((2,4-dichlorobenzyl)carbamoyl)benzyl carbamimidothioate hydrobromide], the remaining activity at 10 µM in experiment [1] stood at 12%; in experiment [2], 81%; at IDO in A431 cells, 122%; on TDO in A172 cells it was 51%.

Take `Cc1ccc(CNC(=O)c2ccc(Br)cc2CSC(=N)N)cc1` [Compound 90, 5-Bromo-2-((4-methylbenzyl)carbamoyl)benzyl carbamimidothioate hydrobromide]: the remaining activity at 10 µM in experiment [1] was found to be 45%; in experiment [2], 90%; at IDO in A431 cells, 96%; at TDO in A172 cells, 51%.

As for `Cc1ccc(CNC(=O)c2ccc(Br)cc2CS/C(N)=N/c2ccc(F)c(Cl)c2)cc1` [Compound 91, 5-Bromo-2-((4-methylbenzyl)carbamoyl)benzyl (E)-N′-(3-chloro-4-fluorophenyl)carbamimidothioate hydrobromide], the remaining activity at 10 µM in experiment [1] was found to be 103%; in experiment [2] it was 78%; on IDO in A431 cells it was 51%; at TDO in A172 cells, 26%.

Regarding `CNC(=O)c1ccccc1CSC(=N)N` [Compound 92, 2-(Methylcarbamoyl)benzyl carbamimidothioate hydrobromide], the remaining activity at 10 µM worked out at 68% in experiment [1], 90% in experiment [2], 112% on IDO in A431 cells and 81% on TDO in A172 cells.

`N=C(N)SCc1cc(Br)ccc1C(=O)NCC1CC1` [Compound 93, 5-Bromo-2-((cyclopropylmethyl)carbamoyl)benzyl carbamimidothioate hydrobromide]: the remaining activity at 10 µM in experiment [1] was 53%; in experiment [2], 103%; at IDO in A431 cells, 124%; at TDO in A172 cells, 49%.

Take `N=C(N)SCc1cc(Br)ccc1C(=O)NCc1ccc(Cl)c(Cl)c1` [Compound 94, 5-Bromo-2-((3,4-dichlorobenzyl)carbamoyl)benzyl carbamimidothioate hydrobromide]: the remaining activity at 10 µM in experiment [1] was found to be 15%; in experiment [2], 80%; at IDO in A431 cells it was 158%; on TDO in A172 cells, 59%.

On to `N#Cc1ccc(CNC(=O)c2ccccc2CSC(=N)N)cc1` [Compound 96, 2-((4-Cyanobenzyl)carbamoyl)benzyl carbamimidothioate hydrobromide], for which the remaining activity at 10 µM worked out at 26% in experiment [1], 71% in experiment [2], 93% on IDO in A431 cells and 38% on TDO in A172 cells.

`N=C(N)SCc1cc(Br)ccc1C(=O)NCc1ccc(Br)cc1` [Compound 97, 5-Bromo-2-((4-bromobenzyl)carbamoyl)benzyl carbamimidothioate hydrobromide]: the remaining activity at 10 µM in experiment [1] turned out to be 16%; in experiment [2] it was 85%; at IDO in A431 cells, 83%; on TDO in A172 cells it was 37%.

For the compound `CNC(=O)c1ncccc1CSC(=N)N` [Compound 98, (2-(Methylcarbamoyl)pyridin-3-yl)methyl carbamimidothioate hydrobromide], the remaining activity at 10 µM in experiment [1] was 91%; in experiment [2], 95%; at IDO in A431 cells it was 107%; at TDO in A172 cells, 133%.

Take `N#Cc1ccc(CNC(=O)c2ncccc2CSC(=N)N)cc1` [Compound 99, (2-((4-Cyanobenzyl)carbamoyl)pyridin-3-yl)methyl carbamimidothioate hydrobromide]: the remaining activity at 10 µM in experiment [1] came out at 75%; in experiment [2], 96%; on IDO in A431 cells, 102%; on TDO in A172 cells, 106%.

On to `CNC(=O)c1cccnc1CSC(=N)N` [Compound 100, (3-(Methylcarbamoyl)pyridin-2-yl)methyl carbamimidothioate hydrobromide], for which the remaining activity at 10 µM in experiment [1] was determined as 84%; in experiment [2], 88%; at IDO in A431 cells it was 93%; at TDO in A172 cells, 123%.

Take `N#Cc1ccc(CNC(=O)c2ncccc2CS/C(N)=N/c2ccc(F)c(Cl)c2)cc1` [Compound 101, (2-((4-Cyanobenzyl)carbamoyl)pyridin-3-yl)methyl (E)-N′-(3-chloro-4-fluorophenyl)carbamimidothioate hydrobromide]: the remaining activity at 10 µM is 84% in experiment [1], 78% in experiment [2], 61% at IDO in A431 cells and 70% on TDO in A172 cells.

On to `COc1ccc(CNC(=O)c2ccc(Br)cc2CSC(=N)N)cc1` [Compound 102, 5-Bromo-2-((4-methoxybenzyl)carbamoyl)benzyl carbamimidothioate hydrobromide], for which the remaining activity at 10 µM in experiment [1] is 58%; in experiment [2], 97%; at IDO in A431 cells, 112%; on TDO in A172 cells it was 38%.

Regarding `N#Cc1ccc(CNC(=O)c2ccccc2C[Se]C(=N)N)cc1` [Compound 104, 2-((4-Cyanobenzyl)carbamoyl)benzyl carbamimidoselenoate hydrobromide], the remaining activity at 10 µM in experiment [1] is 81%; in experiment [2] it was 78%; on IDO in A431 cells, -4%; on TDO in A172 cells, -1%.

With `COc1cccc(CNC(=O)c2ccc(Br)cc2CSC(=N)N)c1` [Compound 105, 5-Bromo-2-((3-methoxybenzyl)carbamoyl)benzyl carbamimidothioate hydrobromide], the remaining activity at 10 µM stood at 68% in experiment [1], 98% in experiment [2], 107% at IDO in A431 cells and 42% on TDO in A172 cells.

On to `COc1cccc(CNC(=O)c2ccc(Br)cc2C[Se]C(=N)N)c1` [Compound 106, 5-Bromo-2-((3-methoxybenzyl)carbamoyl)benzyl carbamimidoselenoate hydrobromide], for which the remaining activity at 10 µM in experiment [1] turned out to be 98%; in experiment [2], 90%; on IDO in A431 cells, 64%; on TDO in A172 cells, 48%.

The values are drawn from patent US12209079B2 (GENERAL INCORPORATED ASSOCIATION PHARMA VALLEY PROJECT …, priority 2017, dated 2025).
